{"source": "paper PMC7505949", "about": "“Structure-Guided Designing and Evaluation of Peptides Targeting Bacterial Transcription” (Frontiers in Bioengineering and Biotechnology, 2020)", "key": {"[1]": {"test": "Solubility in water and aqueous buffer", "format": "physicochemical", "text": "(§1) As the interaction interface between RNAP β1β2 domain and the transcription factor (CarD^NTD and TRCF-RID) ([Westblade et al., 2010]; [Gulten and Sacchettini, 2013]) is relatively large, flat, solvent-exposed, and devoid of the binding pocket, it is challenging to design small molecule-based inhibitors. We therefore aimed to design the peptide-based RNAP β/transcription factor inhibitors by selecting the key residues involved in the interaction at the conserved PPI interface between RNAP β and transcription factor complex. The sequence and molecular weight of the designed peptides are mentioned in Table 1. PEP-FOLD3.1 ([Lamiable et al., 2016]), an online server, was used to predict the de novo structures of the designed peptides by running 100 simulations for each peptide. PEP-FOLD3.1 provides the information in the form of models which are generated by OPEP (Optimized Potential for Efficient structure Prediction) energy. The topmost model with the lowest OPEP score having minimum energy and maximum stability for each peptide was selected for further computational analysis. The designed peptides were 7–8 amino acids in length and were commercially synthesized. The peptides were analyzed for their stability and solubility. All the peptides were soluble in water as well as in aqueous buffer with a solubility of > 10 mM."}, "[2]": {"test": "Storage stability in water by LC-MS", "format": "physicochemical", "conditions": "stored for over a year at 4°C, LC-MS (C18), observed vs calculated molecular weight", "method": "The stability of all the designed peptides was analyzed using Liquid chromatography-mass spectrometry (LC-MS) using Agilent Technologies (model G6550A). […] Peptide 3 was injected in the C18 column equilibrated in a positive mode at a flow rate of 0.5 mL/min using water as a mobile phase.\nas §1, with “The topmost model with the lowest OPEP score having minimum energy and maximum stability for each peptide was selected for further computational analysis. The designed peptides were 7–8 amino acids in length and were commercially synthesized.” left out, “All the peptides were soluble in water as well as in aqueous buffer with a solubility of > 10 mM.” left out"}}, "note": "Peptide text beside a SMILES is read from it."}
{"molecule": "CC[C@H](C)[C@H](NC(=O)[C@H](CCC(=O)O)NC(=O)CNC(=O)[C@@H](N)[C@@H](C)O)C(=O)N[C@@H](CCCCN)C(=O)N[C@@H](CO)C(=O)N[C@@H](CCC(N)=O)C(=O)N[C@H](C(=O)O)[C@@H](C)O", "note": "[Peptide 2] (H-TGEIKSQT-OH)", "values": [{"measurement": "Solubility (in words)", "setting": "[1]", "value": "soluble in aqueous buffer"}, {"measurement": "Stability on storage", "setting": "[2]", "value": "highly stable"}]}
